# Measurements from patent publication US20090163516A1, “CARBOXAMIDES FOR CONTROLLING UNDESIRED MICRO-ORGANISMS IN PLANT PROTECTION” (Bayer Cropscience AG, priority 2005, published 2009).
# System: Sphaerotheca fuliginea
# Test: Sphaerotheca test (cucumber)/protective
# Format: in vivo
# Conditions: 500 ppm; young cucumber plants sprayed, inoculated one day after treatment; evaluation 7 days after inoculation
# Procedure: (§1) To produce a suitable preparation of active compound, 1 part by weight of active compound is mixed with the stated amounts of solvent and emulsifier, and the concentrate is diluted with water to the desired concentration.
# To test for protective activity, young cucumber plants are sprayed with the active compound preparation at the stated application rate. One day after the treatment, the plants are inoculated with a spore suspension of Sphaerotheca fuliginea. The plants are then placed in a greenhouse at 70% relative atmospheric humidity and a temperature of 23° C.
# (§2) Evaluation is carried out 7 days after the inoculation. 0% means an efficacy which corresponds to that of the control, whereas an efficacy of 100% means that no infection is observed.
row,SMILES,Efficacy in % [%]
1,O=C(Nc1ncncc1-c1ccc(Cl)cc1)c1ccccc1C(F)(F)F [drawing 72],78
2,O=C(Nc1ncncc1-c1ccc(Br)cc1)c1ccccc1I [drawing 73],95
3,O=C(Nc1ncncc1-c1ccc(Cl)c(Cl)c1)c1ccccc1I [drawing 74],100
4,O=C(Nc1ncncc1-c1ccc(Cl)c(Cl)c1)c1ccccc1Cl [drawing 75],90
5,O=C(Nc1ncncc1-c1ccc(OC(F)(F)F)cc1)c1ccccc1I [drawing 76],95
6,Cn1cc(C(=O)Nc2ncncc2-c2ccc(Cl)c(Cl)c2)c(C(F)(F)F)n1 [drawing 77],95

# System: Podosphaera leucotricha
# Test: Podosphaera test (apple)/protective
# Format: in vivo
# Conditions: 100 ppm; young apple plants sprayed; evaluation 10 days after inoculation
# Procedure: (§3) To produce a suitable preparation of active compound, 1 part by weight of active compound is mixed with the stated amounts of solvents and emulsifier, and the concentrate is diluted with water to the desired concentration.
# (§4) To test for protective activity, young plants are sprayed with the active compound preparation at the stated application rate. After the spray coating has dried on, the plants are inoculated with an aqueous spore suspension of the apple mildew pathogen Podosphaera leucotricha. The plants are then placed in a greenhouse at about 23° C. and a relative atmospheric humidity of about 70%.
# (§5) Evaluation is carried out 10 days after the inoculation. 0% means an efficacy which corresponds to that of the control, whereas an efficacy of 100% means that no infection is observed.
row,SMILES,Efficacy in % [%]
1,O=C(Nc1ncncc1-c1ccc(Br)cc1)c1ccccc1I [drawing 94],87
2,O=C(Nc1ncncc1-c1ccc(Cl)c(Cl)c1)c1ccccc1I [drawing 95],93
3,O=C(Nc1ncncc1-c1ccc(C(F)(F)F)cc1)c1ccccc1Cl [drawing 96],93

# System: Venturia inaequalis
# Test: Venturia test (apple)/protective
# Format: in vivo
# Conditions: 100 ppm; young apple plants sprayed; evaluation 10 days after inoculation
# Procedure: as §3
# as §4, with “conidia” for “spore”, “scab” for “mildew”, “Venturia inaequalis and then remain in an incubation cabin at about 20° C. and 100% relative atmospheric humidity for 1 day.” for “Podosphaera leucotricha.”, “21°” for “23°”, “90%.” for “70%.”
# as §5
row,SMILES,Efficacy in % [%]
1,Cc1nc(C(F)(F)F)c(C(=O)Nc2ncncc2-c2ccc(Cl)c(Cl)c2)s1 [drawing 97],95
2,O=C(Nc1ncncc1-c1ccc(Cl)c(Cl)c1)c1ccccc1C(F)(F)F [drawing 98],95

# System: not listed separately
# Test: logP determination by HPLC on a reverse-phase column (EEC Directive 79/831 Annex V.A8)
# Format: physicochemical
# Conditions: reverse-phase C18 HPLC column; pH 2.3; HPLC reverse-phase C 18, 43° C., 0.1% aqueous phosphoric acid and acetonitrile
# Procedure: The determination is carried out in the acidic range at pH 2.3 using the mobile phases 0.1% aqueous phosphoric acid and acetonitrile; linear gradient from 10% acetonitrile to 90% acetonitrile.
row,chromatographic logP,SMILES
1,2.57,"O=C(Nc1ncncc1-c1ccc(Cl)cc1)c1ccccc1C(F)(F)F [Example 1, N-[5-(4-chlorophenyl)-4-pyrimidinyl]-2-(trifluoromethyl)benzamide]"
2,2.85,"Cc1nc(C(F)(F)F)c(C(=O)Nc2ncncc2-c2ccc(Cl)c(Cl)c2)s1 [Example 2, N-[5-(3,4-dichlorophenyl)-4-pyrimidinyl]-2-methyl-4-(trifluoromethyl)-1,3-thiazole-5-carboxamide]"
3,2.92,O=C(Nc1ncncc1-c1ccc(Cl)c(Cl)c1)c1ccccc1C(F)(F)F [Example 6]
4,2.61,O=C(Nc1ncncc1-c1ccc(Br)cc1)c1ccccc1I [Example 7]
5,2.89,O=C(Nc1ncncc1-c1ccc(Cl)c(Cl)c1)c1ccccc1I [Example 8]
6,2.46,O=C(Nc1ncncc1-c1ccc(Br)cc1)c1ccccc1Cl [Example 9]
7,2.73,O=C(Nc1ncncc1-c1ccc(Cl)c(Cl)c1)c1ccccc1Cl [Example 10]
8,4.12,O=C(c1ccccc1Cl)N(C(=O)c1ccccc1Cl)c1ncncc1-c1ccc(C(F)(F)F)cc1 [Example 12]
9,2.62,O=C(Nc1ncncc1-c1ccc(C(F)(F)F)cc1)c1ccccc1Cl [Example 13]
10,2.73,O=C(c1ccccc1Cl)N(C(=O)c1ccccc1Cl)c1ncncc1-c1ccc(Br)cc1 [Example 14]
11,2.46,O=C(c1ccccc1Cl)N(C(=O)c1ccccc1Cl)c1ncncc1-c1ccc(Cl)c(Cl)c1 [Example 15]
12,2.46,Cn1cc(C(=O)Nc2ncncc2-c2ccc(Cl)c(Cl)c2)c(C(F)(F)F)n1 [Example 19]
13,0.87,"Nc1ncncc1-c1ccc(Cl)c(Cl)c1 [III-1, 5-(3,4-dichlorophenyl)-4-pyrimidinylamine]"

# System: Botrytis cinerea
# Test: Botrytis test (bean)/protective
# Format: in vivo
# Conditions: 48 h, young bean plants sprayed, size of infected areas two days after inoculation, read-out: Efficacy in %
# Procedure: as §3
# To test for protective activity, young plants are sprayed with the active compound preparation at the stated application rate. After the spray coating has dried on, two small pieces of agar colonized by Botrytis cinerea are placed onto each leaf. The inoculated plants are placed in a dark chamber at about 20° C. and 100% relative atmospheric humidity.
# Two days after the inoculation, the size of the infected areas on the leaves is evaluated. 0% means an efficacy which corresponds to that of the control, whereas an efficacy of 100% means that no infection is observed.
row,SMILES,pest or weed control at 500 ppm [%]
1,Cc1nc(C(F)(F)F)c(C(=O)Nc2ncncc2-c2ccc(Cl)c(Cl)c2)s1 [drawing 99],91
2,O=C(Nc1ncncc1-c1ccc(Cl)c(Cl)c1)c1ccccc1C(F)(F)F [drawing 100],80
3,O=C(Nc1ncncc1-c1ccc(Cl)c(Cl)c1)c1ccccc1I [drawing 101],96
4,O=C(Nc1ncncc1-c1ccc(Br)cc1)c1ccccc1Cl [drawing 102],99
5,O=C(Nc1ncncc1-c1ccc(Cl)c(Cl)c1)c1ccccc1Cl [drawing 103],91
6,O=C(Nc1ncncc1-c1ccc(OC(F)(F)F)cc1)c1ccccc1I [drawing 104],89
7,O=C(Nc1ncncc1-c1ccc(C(F)(F)F)cc1)c1ccccc1Cl [drawing 105],100
8,O=C(Nc1ncncc1-c1ccc(OC(F)(F)F)cc1)c1ccccc1Cl [drawing 106],79

# System: Pyrenophora teres
# Test: Pyrenophora teres test (barley)/protective
# Format: in vivo
# Conditions: 1000 ppm; young barley plants sprayed; evaluation 8 days after inoculation
# Procedure: as §1
# To test for protective activity, young plants are sprayed with the active compound preparation at the stated application rate. After the spray coating has dried on, the plants are sprayed with a conidia suspension of Pyrenophora teres. The plants remain in an incubation cabin at 20° C. and 100% relative atmospheric humidity for 48 hours. The plants are then placed in a greenhouse at a temperature of about 20° C. and a relative atmospheric humidity of about 80%.
# Evaluation is carried out 8 days after the inoculation. 0% means an efficacy which corresponds to that of the control, whereas an efficacy of 100% means that no infection is observed.
row,SMILES,Efficacy in % [%]
1,O=C(Nc1ncncc1-c1ccc(Br)cc1)c1ccccc1I [drawing 92],89
2,O=C(Nc1ncncc1-c1ccc(Cl)c(Cl)c1)c1ccccc1I [drawing 93],100

# System: Alternaria solani
# Test: Alternaria test (tomato)/protective
# Format: in vivo
# Conditions: 168 h, young tomato plants sprayed, inoculated one day after treatment, evaluation 7 days after inoculation, read-out: Efficacy in %
# Procedure: as §1
# To test for protective activity, young tomato plants are sprayed with the active compound preparation at the stated application rate. One day after the treatment, the plants are inoculated with a spore suspension of Alternaria solani and then remain at 100% relative humidity and 20° C. for 24 h. The plants then remain at 96% relative atmospheric humidity and a temperature of 20° C.
# as §2
row,SMILES,pest or weed control at 500 ppm [%]
1,O=C(c1ccccc1Cl)N(C(=O)c1ccccc1Cl)c1ncncc1-c1ccc(OC(F)(F)F)cc1,70
2,Cc1ccsc1C(=O)Nc1ncncc1-c1ccc(OC(F)(F)F)cc1,70
3,O=C(Nc1ncncc1-c1ccc(Cl)cc1)c1ccccc1C(F)(F)F [drawing 78],100
4,O=C(Nc1ncncc1-c1ccc(Br)cc1)c1ccccc1I [drawing 79],100
5,O=C(Nc1ncncc1-c1ccc(Cl)c(Cl)c1)c1ccccc1I [drawing 80],100
6,O=C(Nc1ncncc1-c1ccc(Br)cc1)c1ccccc1Cl [drawing 81],100
7,O=C(Nc1ncncc1-c1ccc(Cl)c(Cl)c1)c1ccccc1Cl [drawing 82],100
8,O=C(Nc1ncncc1-c1ccc(OC(F)(F)F)cc1)c1ccccc1I [drawing 83],100
9,O=C(c1ccccc1Cl)N(C(=O)c1ccccc1Cl)c1ncncc1-c1ccc(C(F)(F)F)cc1 [drawing 84],100
10,O=C(Nc1ncncc1-c1ccc(C(F)(F)F)cc1)c1ccccc1Cl [drawing 85],100
11,O=C(c1ccccc1Cl)N(C(=O)c1ccccc1Cl)c1ncncc1-c1ccc(Br)cc1 [drawing 86],71
12,O=C(c1ccccc1Cl)N(C(=O)c1ccccc1Cl)c1ncncc1-c1ccc(Cl)c(Cl)c1 [drawing 87],95
13,O=C(Nc1ncncc1-c1ccc(OC(F)(F)F)cc1)c1ccccc1Cl [drawing 89],95
14,Cn1cc(C(=O)Nc2ncncc2-c2ccc(Cl)c(Cl)c2)c(C(F)(F)F)n1 [drawing 90],95
